In patent US12122763B2, “Substituted piperidines for androgen receptor degradation” (UBIX THERAPEUTICS, INC., priority 2020, dated 2024):

Target: T1, Androgen Receptor (AR) protein (Homo sapiens, UniProt P10275, T878A)
T1 construct: endogenous in cells; host or cells: LNCaP
Experiment: Androgen Receptor (AR) protein degradation assay in LNCaP cells, western blotting
Type: cell-based
Settings: 20 h; for inhibition at 0.01 µM: 0.01 μM compound; for inhibition at 0.1 µM: 0.1 μM compound; for inhibition at 1 µM: 1 μM compound; for inhibition at 10 µM: 10 μM compound
Summary of the method: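 LNCaP prostate cancer cells were cultured 3 days, then treated with compound for 20 h. Lysates in 1% SDS buffer were normalised by BCA, and 8 μg protein was run on 4–12% Bis-Tris gels. AR was immunoblotted with chemiluminescence, using GAPDH/β-actin as loading controls.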

T1 sequence (P10275 whole entry T878A): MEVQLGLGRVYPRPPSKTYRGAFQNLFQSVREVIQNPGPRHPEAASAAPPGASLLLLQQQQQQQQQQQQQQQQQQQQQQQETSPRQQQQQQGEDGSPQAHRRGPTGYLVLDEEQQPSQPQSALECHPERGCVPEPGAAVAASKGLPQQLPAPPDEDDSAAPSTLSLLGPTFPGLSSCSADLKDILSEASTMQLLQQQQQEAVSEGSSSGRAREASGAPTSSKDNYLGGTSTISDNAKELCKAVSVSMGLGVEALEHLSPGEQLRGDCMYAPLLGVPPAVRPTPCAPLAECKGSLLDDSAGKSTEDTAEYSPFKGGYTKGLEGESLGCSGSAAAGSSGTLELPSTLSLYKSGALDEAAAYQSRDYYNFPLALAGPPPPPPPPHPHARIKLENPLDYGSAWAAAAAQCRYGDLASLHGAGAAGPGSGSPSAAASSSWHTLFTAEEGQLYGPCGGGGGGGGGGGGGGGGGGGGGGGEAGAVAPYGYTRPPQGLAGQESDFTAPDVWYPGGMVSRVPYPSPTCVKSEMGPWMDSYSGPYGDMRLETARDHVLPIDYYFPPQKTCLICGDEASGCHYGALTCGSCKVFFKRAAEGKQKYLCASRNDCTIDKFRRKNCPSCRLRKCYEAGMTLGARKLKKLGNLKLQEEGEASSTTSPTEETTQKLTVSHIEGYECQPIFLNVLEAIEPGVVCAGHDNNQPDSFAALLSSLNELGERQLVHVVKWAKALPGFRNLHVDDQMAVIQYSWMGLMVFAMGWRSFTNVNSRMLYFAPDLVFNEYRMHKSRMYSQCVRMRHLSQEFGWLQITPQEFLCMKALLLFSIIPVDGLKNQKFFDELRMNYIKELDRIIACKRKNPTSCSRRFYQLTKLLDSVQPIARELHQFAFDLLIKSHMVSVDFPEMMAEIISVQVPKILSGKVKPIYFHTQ
T1 sequence (Q96SW2 whole entry partner): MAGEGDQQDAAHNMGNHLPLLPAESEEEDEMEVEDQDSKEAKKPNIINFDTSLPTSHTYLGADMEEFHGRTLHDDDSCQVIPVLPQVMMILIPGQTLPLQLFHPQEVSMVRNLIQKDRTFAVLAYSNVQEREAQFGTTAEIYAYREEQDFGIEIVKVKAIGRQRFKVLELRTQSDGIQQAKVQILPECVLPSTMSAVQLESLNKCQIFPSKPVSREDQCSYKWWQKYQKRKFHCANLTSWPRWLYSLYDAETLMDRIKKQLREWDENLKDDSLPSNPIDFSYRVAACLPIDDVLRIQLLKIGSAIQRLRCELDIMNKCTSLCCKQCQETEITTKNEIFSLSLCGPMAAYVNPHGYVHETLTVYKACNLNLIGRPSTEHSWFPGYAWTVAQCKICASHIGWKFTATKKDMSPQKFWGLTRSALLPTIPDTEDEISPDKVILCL

Structure (SMILES)	inhibition at 0.01 µM [%]	inhibition at 0.1 µM [%]	inhibition at 1 µM [%]	inhibition at 10 µM [%]
N#Cc1ccc(N2CCC(C(=O)Nc3ccc(N4CCC(CN5CCC6(CC5)CCN(c5ccc7c(c5)C(=O)N(C5CCC(=O)NC5=O)C7=O)CC6)CC4)cn3)CC2)cc1Cl (stereo not drawn) [Example 69, 1-(3-chloro-4-cyanophenyl)-N-(5-(4-((9-(2-(2,6-dioxopiperidin-3-yl)-1,3-dioxoisoindolin-5-yl)-3,9-diazaspiro[5.5]undecan-3-yl)methyl)piperidin-1-yl)pyridin-2-yl)piperidine-4-carboxamide]	40	83	85	82
N#Cc1ccc(N2CCC(C(=O)Nc3ccc(N4CCC(CN5CCN(C6CCN(c7ccc8c(c7)C(=O)N(C7CCC(=O)NC7=O)C8=O)CC6)CC5)CC4)cn3)CC2)cc1C(F)(F)F (stereo not drawn) [Example 70, 1-(4-cyano-3-(trifluoromethyl)phenyl)-N-(5-(4-((4-(1-(2-(2,6-dioxopiperidin-3-yl)-1,3-dioxoisoindolin-5-yl)piperidin-4-yl)piperazin-1-yl)methyl)piperidin-1-yl)pyridin-2-yl)piperidine-4-carboxamide]	85	99	99	97
N#Cc1ccc(N2CCC(C(=O)Nc3ccc(N4CCC(CN5CCN(C6CCN(c7ccc8c(c7)C(=O)N(C7CCC(=O)NC7=O)C8=O)CC6)CC5)CC4)cn3)CC2)cc1Cl (stereo not drawn) [Example 71, 1-(3-chloro-4-cyanophenyl)-N-(5-(4-((4-(1-(2-(2,6-dioxopiperidin-3-yl)-1,3-dioxoisoindolin-5-yl)piperidin-4-yl)piperazin-1-yl)methyl)piperidin-1-yl)pyridin-2-yl)piperidine-4-carboxamide]	75	97	98	98
N#Cc1ccc(N2CCC(F)(C(=O)Nc3ccc(N4CCC(CN5CCN(C6CCN(c7ccc8c(c7)C(=O)N(C7CCC(=O)NC7=O)C8=O)CC6)CC5)CC4)cn3)CC2)cc1C(F)(F)F (stereo not drawn) [Example 72, 1-(4-cyano-3-(trifluoromethyl)phenyl)-N-(5-(4-((4-(1-(2-(2,6-dioxopiperidin-3-yl)-1,3-dioxoisoindolin-5-yl)piperidin-4-yl)piperazin-1-yl)methyl)piperidin-1-yl)pyridin-2-yl)-4-fluoropiperidine-4-carboxamide]	59	94	97	–
N#Cc1ncc(N2CCC(C(=O)Nc3ccc(N4CCC(CN5CCN(C6CCN(c7ccc8c(c7)C(=O)N(C7CCC(=O)NC7=O)C8=O)CC6)CC5)CC4)cn3)CC2)cc1C(F)(F)F (stereo not drawn) [Example 73, 1-(6-cyano-5-(trifluoromethyl)pyridin-3-yl)-N-(5-(4-((4-(1-(2-(2,6-dioxopiperidin-3-yl)-1,3-dioxoisoindolin-5-yl)piperidin-4-yl)piperazin-1-yl)methyl)piperidin-1-yl)pyridin-2-yl)piperidine-4-carboxamide]	55	88	92	–
N#Cc1ncc(N2CCC(F)(C(=O)Nc3ccc(N4CCC(CN5CCN(C6CCN(c7ccc8c(c7)C(=O)N(C7CCC(=O)NC7=O)C8=O)CC6)CC5)CC4)cn3)CC2)cc1C(F)(F)F (stereo not drawn) [Example 74, 1-(6-cyano-5-(trifluoromethyl)pyridin-3-yl)-N-(5-(4-((4-(1-(2-(2,6-dioxopiperidin-3-yl)-1,3-dioxoisoindolin-5-yl)piperidin-4-yl)piperazin-1-yl)methyl)piperidin-1-yl)pyridin-2-yl)-4-fluoropiperidine-4-carboxamide]	20	66	83	–
N#Cc1ccc(N2CCC(C(=O)Nc3ccc(N4CCC(CN5CCN(C6CCN(c7ccc8c(n7)CN(C7CCC(=O)NC7=O)C8=O)CC6)CC5)CC4)cn3)CC2)cc1C(F)(F)F (stereo not drawn) [Example 75, 1-(4-cyano-3-(trifluoromethyl)phenyl)-N-(5-(4-((4-(1-(6-(2,6-dioxopiperidin-3-yl)-5-oxo-6,7-dihydro-5H-pyrrolo[3,4-b]pyridin-2-yl)piperidin-4-yl)piperazin-1-yl)methyl)piperidin-1-yl)pyridin-2-yl)piperidine-4-carboxamide]	82	97	90	–
N#Cc1ccc(N2CCC(C(=O)Nc3ccc(N4CCC(CN5CCN(C6CCN(c7cccc8c7C(=O)N(C7CCC(=O)NC7=O)C8=O)CC6)CC5)CC4)cn3)CC2)cc1C(F)(F)F (stereo not drawn) [Example 76, 1-(4-cyano-3-(trifluoromethyl)phenyl)-N-(5-(4-((4-(1-(2-(2,6-dioxopiperidin-3-yl)-1,3-dioxoisoindolin-4-yl)piperidin-4-yl)piperazin-1-yl)methyl)piperidin-1-yl)pyridin-2-yl)piperidine-4-carboxamide]	36	85	88	–
N#Cc1ccc(N2CCC(C(=O)Nc3ccc(N4CCC(CN5CC(N6CCN(c7ccc8c(c7)C(=O)N(C7CCC(=O)NC7=O)C8=O)CC6)C5)CC4)cn3)CC2)cc1C(F)(F)F (stereo not drawn) [Example 77, 1-(4-cyano-3-(trifluoromethyl)phenyl)-N-(5-(4-((3-(4-(2-(2,6-dioxopiperidin-3-yl)-1,3-dioxoisoindolin-5-yl)piperazin-1-yl)azetidin-1-yl)methyl)piperidin-1-yl)pyridin-2-yl)piperidine-4-carboxamide]	46	96	97	–
N#Cc1ccc(N2CCC(C(=O)Nc3ccc(N4CCC(CN5CC(N6CCN(c7ccc8c(n7)CN(C7CCC(=O)NC7=O)C8=O)CC6)C5)CC4)cn3)CC2)cc1C(F)(F)F (stereo not drawn) [Example 78, 1-(4-cyano-3-(trifluoromethyl)phenyl)-N-(5-(4-((3-(4-(6-(2,6-dioxopiperidin-3-yl)-5-oxo-6,7-dihydro-5H-pyrrolo[3,4-b]pyridin-2-yl)piperazin-1-yl)azetidin-1-yl)methyl)piperidin-1-yl)pyridin-2-yl)piperidine-4-carboxamide]	49	88	71	–
N#Cc1ccc(N2CCC(C(=O)Nc3ccc(N4CCC(CN5CC(CN6CCN(c7ccc8c(c7)C(=O)N(C7CCC(=O)NC7=O)C8=O)CC6)C5)CC4)cn3)CC2)cc1C(F)(F)F (stereo not drawn) [Example 79, 1-(4-cyano-3-(trifluoromethyl)phenyl)-N-(5-(4-((3-((4-(2-(2,6-dioxopiperidin-3-yl)-1,3-dioxoisoindolin-5-yl)piperazin-1-yl)methyl)azetidin-1-yl)methyl)piperidin-1-yl)pyridin-2-yl)piperidine-4-carboxamide]	31	94	95	–
N#Cc1ccc(N2CCC(C(=O)Nc3ccc(N4CCC(CN5CC(CN6CCN(c7ccc8c(n7)CN(C7CCC(=O)NC7=O)C8=O)CC6)C5)CC4)cn3)CC2)cc1C(F)(F)F (stereo not drawn) [Example 80, 1-(4-cyano-3-(trifluoromethyl)phenyl)-N-(5-(4-((3-((4-(6-(2,6-dioxopiperidin-3-yl)-5-oxo-6,7-dihydro-5H-pyrrolo[3,4-b]pyridin-2-yl)piperazin-1-yl)methyl)azetidin-1-yl)methyl)piperidin-1-yl)pyridin-2-yl)piperidine-4-carboxamide]	34	90	57	–
N#Cc1ccc(N2CCC(C(=O)Nc3ccc(N4CCC(CN5CCC(CN6CCN(c7ccc8c(c7)C(=O)N(C7CCC(=O)NC7=O)C8=O)CC6)CC5)CC4)cn3)CC2)cc1C(F)(F)F (stereo not drawn) [Example 81, 1-(4-cyano-3-(trifluoromethyl)phenyl)-N-(5-(4-((4-((4-(2-(2,6-dioxopiperidin-3-yl)-1,3-dioxoisoindolin-5-yl)piperazin-1-yl)methyl)piperidin-1-yl)methyl)piperidin-1-yl)pyridin-2-yl)piperidine-4-carboxamide]	44	87	96	–
N#Cc1ccc(N2CCC(C(=O)Nc3ccc(N4CCC(CN5CC[C@H](CN6CCN(c7ccc8c(c7)C(=O)N(C7CCC(=O)NC7=O)C8=O)CC6)C5)CC4)cn3)CC2)cc1C(F)(F)F (stereo partly drawn) [Example 82, 1-(4-cyano-3-(trifluoromethyl)phenyl)-N-(5-(4-(((3S)-3-((4-(2-(2,6-dioxopiperidin-3-yl)-1,3-dioxoisoindolin-5-yl)piperazin-1-yl)methyl)pyrrolidin-1-yl)methyl)piperidin-1-yl)pyridin-2-yl)piperidine-4-carboxamide]	33	87	95	–
N#Cc1ccc(N2CCC(C(=O)Nc3ccc(N4CCC(CN5CC[C@@H](CN6CCN(c7ccc8c(c7)C(=O)N(C7CCC(=O)NC7=O)C8=O)CC6)C5)CC4)cn3)CC2)cc1C(F)(F)F (stereo partly drawn) [Example 83, 1-(4-cyano-3-(trifluoromethyl)phenyl)-N-(5-(4-(((3R)-3-((4-(2-(2,6-dioxopiperidin-3-yl)-1,3-dioxoisoindolin-5-yl)piperazin-1-yl)methyl)pyrrolidin-1-yl)methyl)piperidin-1-yl)pyridin-2-yl)piperidine-4-carboxamide]	25	87	96	–
CN(CC1CCN(c2ccc(NC(=O)C3CCN(c4ccc(C#N)c(C(F)(F)F)c4)CC3)nc2)CC1)CC1CCN(c2ccc3c(c2)C(=O)N(C2CCC(=O)NC2=O)C3=O)CC1 (stereo not drawn) [Example 84, 1-(4-cyano-3-(trifluoromethyl)phenyl)-N-(5-(4-((((1-(2-(2,6-dioxopiperidin-3-yl)-1,3-dioxoisoindolin-5-yl)piperidin-4-yl)methyl)(methyl)amino)methyl)piperidin-1-yl)pyridin-2-yl)piperidine-4-carboxamide]	59	89	88	–
